“And” between values parts separate entries of the source, which are not always exact repeats. Equal values may be shown once. Toxic doses and inconclusive results are not listed. Rule as the data show it: active = T/C of 150% or more; inactive = T/C below 125%.
System: L1210 leukemia ip in BDF1 mice, survival T/C
Test: NCI In Vivo Anticancer Drug Screen. Data for tumor model L1210 Leukemia (intraperitoneal) in B6D2F1 (BDF1) mice
Settings: endpoint: mean survival time, higher = longer survival
Method in brief: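 Read-out is survival time, reported as the treated-group measurement over the vehicle-control measurement.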

[1] = dose: 100.0 mg/kg/injection, schedule: Q01DX001 (ip), vehicle: Klucel (hydroxypropylcellulose) (HPC)
[2] = dose: 100.0 mg/kg/injection, schedule: Q04DX003 (ip), vehicle: Klucel (hydroxypropylcellulose) (HPC)
[3] = dose: 200.0 mg/kg/injection, schedule: Q01DX001 (ip), vehicle: Klucel (hydroxypropylcellulose) (HPC)
[4] = dose: 200.0 mg/kg/injection, schedule: Q04DX003 (ip), vehicle: Klucel (hydroxypropylcellulose) (HPC)
[5] = dose: 400.0 mg/kg/injection, schedule: Q01DX001 (ip), vehicle: Klucel (hydroxypropylcellulose) (HPC)
[6] = dose: 400.0 mg/kg/injection, schedule: Q04DX003 (ip), vehicle: Klucel (hydroxypropylcellulose) (HPC)
[7] = dose: 100.0 mg/kg/injection, schedule: Q01DX001 (ip), vehicle: saline
[8] = dose: 200.0 mg/kg/injection, schedule: Q01DX001 (ip), vehicle: saline
[9] = dose: 400.0 mg/kg/injection, schedule: Q01DX001 (ip), vehicle: saline
[10] = dose: 100.0 mg/kg/injection, schedule: Q01DX001 (ip), vehicle: carboxymethylcellulose (CMC)
[11] = dose: 400.0 mg/kg/injection, schedule: Q01DX001 (ip), vehicle: carboxymethylcellulose (CMC)
[12] = dose: 100.0 mg/kg/injection, schedule: Q01DX009 (ip), vehicle: saline with Tween-80
[13] = dose: 200.0 mg/kg/injection, schedule: Q01DX009 (ip), vehicle: saline with Tween-80
[14] = dose: 400.0 mg/kg/injection, schedule: Q01DX009 (ip), vehicle: saline with Tween-80

Measured: T/C

CC(CP(c1ccccc1)c1ccccc1)(CP(c1ccccc1)c1ccccc1)CP(c1ccccc1)c1ccccc1
inactive: [1] 97 % of control | [2] 111 % of control | [3] 87 % of control | [4] 105 % of control | [5] 87 % of control | [6] 90 % of control

C=CCc1ccc(OC(=O)Nc2ccccc2Cl)c(OC)c1
inactive: dose: 100.0 mg/kg/injection, schedule: Q04DX002 (ip), vehicle: Klucel (hydroxypropylcellulose) (HPC) 96 % of control | dose: 200.0 mg/kg/injection, schedule: Q04DX002 (ip), vehicle: Klucel (hydroxypropylcellulose) (HPC) 96 % of control | dose: 400.0 mg/kg/injection, schedule: Q04DX002 (ip), vehicle: Klucel (hydroxypropylcellulose) (HPC) 92 % of control

CC(=O)OC1=C(CC=C(C)C)C(=O)c2ccccc2C1=O
inactive: dose: 50.0 mg/kg/injection, schedule: Q01DX001 (ip), vehicle: water 97 % of control | dose: 100.0 mg/kg/injection, schedule: Q01DX001 (ip), vehicle: water 95 % of control | dose: 200.0 mg/kg/injection, schedule: Q01DX001 (ip), vehicle: water 100 % of control | dose: 400.0 mg/kg/injection, schedule: Q01DX001 (ip), vehicle: water 104 % of control

CC(CC(C)(C)C)C(=O)Cl (centres undefined)
inactive: [7] 95 % of control | [8] 92 % of control | [9] 108 % of control

O=C(O)c1cc(OCc2ccccc2)cc(OCc2ccccc2)c1
inactive: dose: 25.0 mg/kg/injection, schedule: Q01DX009 (ip), vehicle: carboxymethylcellulose (CMC) 102 % of control and 105 % of control | dose: 50.0 mg/kg/injection, schedule: Q01DX009 (ip), vehicle: carboxymethylcellulose (CMC) 101 % of control and 91 % of control | [10] 101 % of control and 103 % of control | dose: 100.0 mg/kg/injection, schedule: Q01DX009 (ip), vehicle: carboxymethylcellulose (CMC) 92 % of control and 112 % of control and 91 % of control | dose: 100.0 mg/kg/injection, schedule: Q04DX002 (ip), vehicle: carboxymethylcellulose (CMC) 92 % of control and 88 % of control | dose: 100.0 mg/kg/injection, schedule: Q04DX003 (ip), vehicle: carboxymethylcellulose (CMC) 95 % of control and 97 % of control | dose: 200.0 mg/kg/injection, schedule: Q01DX001 (ip), vehicle: carboxymethylcellulose (CMC) 96 % of control and 107 % of control | dose: 200.0 mg/kg/injection, schedule: Q04DX002 (ip), vehicle: carboxymethylcellulose (CMC) 95 % of control and 97 % of control | dose: 200.0 mg/kg/injection, schedule: Q04DX003 (ip), vehicle: carboxymethylcellulose (CMC) 99 % of control and 91 % of control | [11] 93 % of control and 96 % of control | dose: 400.0 mg/kg/injection, schedule: Q04DX002 (ip), vehicle: carboxymethylcellulose (CMC) 92 % of control and 97 % of control | dose: 400.0 mg/kg/injection, schedule: Q04DX003 (ip), vehicle: carboxymethylcellulose (CMC) 92 % of control and 100 % of control

O=C1C=C(c2ccccc2)C(O)(c2ccccc2)O1 (centres undefined)
inactive: dose: 100.0 mg/kg/injection, schedule: Q01DX001 (ip), vehicle: saline with Tween-80 106 % of control | dose: 200.0 mg/kg/injection, schedule: Q01DX001 (ip), vehicle: saline with Tween-80 103 % of control | dose: 400.0 mg/kg/injection, schedule: Q01DX001 (ip), vehicle: saline with Tween-80 101 % of control

O=S(O)c1ccc2cc(O)c(S(=O)O)cc2c1
inactive: [7] 95 % of control | [12] 95 % of control | [8] 97 % of control | [13] 95 % of control | [9] 97 % of control | [14] 92 % of control

Cc1c(CC(Cl)Cl)cc(-c2ccccc2)c2ccccc12
inactive: [2] 96 % of control | [4] 92 % of control | [6] 100 % of control

COc1ccccc1NC(=O)C(C(C)=O)C(c1cccc([N+](=O)[O-])c1)C(C(C)=O)C(=O)Nc1ccccc1OC (centres undefined)
inactive: [7] 96 % of control | [8] 96 % of control | [9] 89 % of control

CCCOC1=C(Br)C(=O)c2ccccc2C1=O
inactive: dose: 15.0 mg/kg/injection, schedule: Q01DX001 (ip), vehicle: carboxymethylcellulose (CMC) 98 % of control | dose: 30.0 mg/kg/injection, schedule: Q01DX001 (ip), vehicle: carboxymethylcellulose (CMC) 97 % of control

O=C(O)/C(=C\c1ccccc1)Sc1ccccc1
inactive: dose: 75.0 mg/kg/injection, schedule: Q01DX001 (ip), vehicle: acetone 105 % of control | dose: 150.0 mg/kg/injection, schedule: Q01DX001 (ip), vehicle: acetone 98 % of control | dose: 300.0 mg/kg/injection, schedule: Q01DX001 (ip), vehicle: acetone 100 % of control

C=C[CH2][Sn]([Br])([Br])[CH2]C=C
inactive: [12] 106 % of control | [13] 95 % of control | [14] 95 % of control

CN(C)Cc1cc(Cl)cc(Cc2cc(Cl)cc(CN(C)C)c2O)c1O
inactive: [7] 100 % of control | dose: 100.0 mg/kg/injection, schedule: Q04DX003 (ip), vehicle: saline 93 % of control | [8] 94 % of control | dose: 200.0 mg/kg/injection, schedule: Q04DX003 (ip), vehicle: saline 88 % of control | [9] 96 % of control | dose: 400.0 mg/kg/injection, schedule: Q04DX003 (ip), vehicle: saline 95 % of control

CC(C)(C)C#CC#CC(C)(C)C
inactive: dose: 10.0 mg/kg/injection, schedule: Q04DX003 (ip), vehicle: saline 95 % of control | dose: 20.0 mg/kg/injection, schedule: Q04DX003 (ip), vehicle: saline 100 % of control | dose: 40.0 mg/kg/injection, schedule: Q04DX003 (ip), vehicle: saline 92 % of control

CC(C)N=C(c1ccccc1)N(O)c1ccccc1
inactive: dose: 75.0 mg/kg/injection, schedule: Q01DX001 (ip), vehicle: saline 93 % of control | dose: 150.0 mg/kg/injection, schedule: Q01DX001 (ip), vehicle: saline 101 % of control | dose: 300.0 mg/kg/injection, schedule: Q01DX001 (ip), vehicle: saline 91 % of control

COc1ccc(C2c3cc(OC)c(OC)cc3CC3C(=O)OCC32)cc1OC (centres undefined)
inactive: [2] 98 % of control | [4] 93 % of control | [6] 93 % of control

O=S1(=O)CCN(c2ccccc2CC(c2c[nH]c3ccccc23)c2c[nH]c3ccccc23)CC1
inactive: [7] 89 % of control | [8] 86 % of control

CCOC(=O)NC(/C=C/c1ccccc1)NC(=O)OCC
inactive: dose: 50.0 mg/kg/injection, schedule: Q01DX001 (ip), vehicle: carboxymethylcellulose (CMC) 92 % of control | [10] 95 % of control | [7] 102 % of control | [8] 96 % of control | [11] 95 % of control | [9] 100 % of control

O=C(O)c1cc(O)[nH]c(=O)c1
inactive: dose: 100.0 mg/kg/injection, schedule: Q04DX003 (ip), vehicle: saline with Tween-80 102 % of control | dose: 200.0 mg/kg/injection, schedule: Q04DX003 (ip), vehicle: saline with Tween-80 91 % of control | dose: 400.0 mg/kg/injection, schedule: Q04DX003 (ip), vehicle: saline with Tween-80 94 % of control

O=C(Nc1cc([N+](=O)[O-])cc([N+](=O)[O-])c1O)C(F)(F)F
inactive: dose: 25.0 mg/kg/injection, schedule: Q01DX001 (ip), vehicle: Klucel (hydroxypropylcellulose) (HPC) 102 % of control | dose: 50.0 mg/kg/injection, schedule: Q01DX001 (ip), vehicle: Klucel (hydroxypropylcellulose) (HPC) 96 % of control | [1] 100 % of control and 120 % of control | [3] 98 % of control

CC(=O)Oc1ccccc1C1SCSCS1
inactive: [1] 100 % of control | [3] 100 % of control | [5] 94 % of control

From PubChem BioAssay AID248 (DTP/NCI, 2004)
